In BindingDB's records for patent US11225492 (Hangzhou Innogate Pharma Co., Ltd., 2022):
pIC50: −log10 of the molar value.

Molecular target: Cyclin-dependent kinase 6 (Homo sapiens, UniProt Q00534)
Test: Kinase Assay
Method: CDK2/CycA2 and CDK6/cycD3 were assayed under buffer conditions in the presence of 50 mM HEPES (pH 7.5), 10 mM MgCl2, 0.0015% Brij-35, and 2 mM dithiothreitol, CDK4/CycD3 with buffer condition of 20 mM HEPES (pH 7.5), 10 mM MgCl2, 0.01% Triton X-100, and 2 mM dithiothreitol. Prepare compounds to 50× of the final desired highest inhibitor concentration by 100% DMSO and serial dilution in 3-fold for total of 10 concentrations. […] After assay for 60 min, 180 min, 60 min respectively at 28° C., reactions were terminated with stop solution (50 mM EDTA, 0.015% Brij-35, 0.2% Coating Reagent #3 and 100 mM HEPES (pH 7.5)). Collect conversion on Caliper EZ Reader.

Sequence of Cyclin-dependent kinase 6 (Q00534 whole entry): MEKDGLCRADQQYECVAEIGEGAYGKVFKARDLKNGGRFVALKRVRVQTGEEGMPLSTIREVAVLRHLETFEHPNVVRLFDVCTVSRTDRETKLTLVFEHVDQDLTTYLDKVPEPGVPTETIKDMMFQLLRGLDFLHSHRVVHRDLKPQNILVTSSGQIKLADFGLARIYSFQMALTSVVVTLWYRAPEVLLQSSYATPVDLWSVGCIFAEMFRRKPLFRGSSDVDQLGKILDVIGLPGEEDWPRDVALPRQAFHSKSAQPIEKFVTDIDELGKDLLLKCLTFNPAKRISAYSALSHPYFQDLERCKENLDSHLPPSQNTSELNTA

pIC50 | Structure (SMILES)
> 7.60 | CC(=O)c1c(C)c2cnc(Nc3ccc4c(c3)OC[C@H]3CNCCN43)nc2n(C2CCCC2)c1=O [US11225492, Compound 7R]
> 7.60 | CC(=O)c1c(C)c2cnc(Nc3ccc4c(c3)OCC3CNCCN43)nc2n(C2CCCC2)c1=O (racemic) [US11225492, Compound 7]
> 7.60 | CC(=O)c1c(C)c2cnc(Nc3ccc4c(c3)OC[C@@H]3CNCCN43)nc2n(C2CCCC2)c1=O [US11225492, Compound 7S]
